Assay results from PMC8669712, “G Protein-Coupled Receptor GPR35 Suppresses Lipid Accumulation in Hepatocytes” (ACS Pharmacology & Translational Science, 2021).

Legend:
[1] = tested on: mouse orthologue of GPR35; design: method as in PMID 22967846, PMID 30601679; conditions: cited from earlier work
[2] = tested on: clone 27 HepG2 cells transfected with human GPR35a; assay: Cellular impedance in clone 27 cells transiently transfected with human GPR35a; format: cell-based; conditions: ML-145 1 × 10^–5 M, lodoxamide 1 × 10^–8 M
Protocol: Briefly, CRISPR KO cells were transiently transfected 24 h with the human GPR35a expression vector using LipofectAMINE 3000 reagent, according to the manufacturer’s instructions. […] Alternatively, after 24 h transfection, cells were seeded onto a 12-well plate (1 × 10^5 cells/well) for 24 h at 37 °C. Then, cells were incubated with T0901317 and/or GPR35 agonists (in MEM containing 5% FBS) for 72 h. After the drug treatment, cells were stained with Oil Red O to examine the levels of lipid accumulation. Each experiment was repeated at least three times.
(§1) HepG2 cells were seeded onto xCELLigence E plates (2 × 10^4 cells/well) and incubated for 24 h at 37 °C. To evaluate GPR35 activation and its downstream G protein signaling, HepG2 cells or primary mouse hepatocytes were exposed to GPR35 antagonists or G protein inhibitors 1 h (overnight for Pertussis toxin) prior to GPR35 agonist stimulation. After the addition of GPR35 agonist or vehicle control, the impedance (represented as “cell index”) was recorded every 30 s over a 2 h period using xCELLigence RTCA (Agilent). Each experiment was repeated at least three times.

[3] = tested on: hepatocytes from hGPR35a-HA-expressing mice; assay: Label-free cellular impedance assay in hepatocytes from hGPR35a-HA-expressing mice; format: cell-based, mouse
human isoforms of GPR35 = target: human isoforms of GPR35; design: method as in PMID 23888932; conditions: read-out: Ki from competition studies against a [3H]radiolabeled agonist; cited from earlier work
[4] = tested on: hepatocytes from hGPR35a-HA-expressing mice; assay: Oil Red O lipid accumulation in hepatocytes from hGPR35a-HA-expressing mice; format: cell-based, mouse; conditions: hepatocytes from hGPR35a-HA-expressing mice
Protocol: All mice were bred as WT or homozygous onto a C57BL/6N background. Animals were cared for in accordance with national guidelines on animal experimentation. All animal experiments were conducted under a home office license held by the authors. WT, humanized GPR35a, or KO male mice at 3–4 months of age were used in this study. These mice were fed ad libitum with a standard mouse chow diet. Briefly, mouse primary hepatocytes were isolated using a two-step collagenase perfusion technique.[45] Twelve-well plates or xCELLigence E plates were coated with rat tail collagen I solution (Thermo Fisher Scientific) overnight at 37 °C and washed with PBS. Isolated primary hepatocytes were seeded onto 12-well plates (8 × 10^4 cells/well) or xCELLigence E plates (2 × 10^4 cells/well) in Wiliam’s E medium (Thermo Fisher Scientific) supplemented with 10% fetal bovine serum (FBS) and 1× penicillin/streptomycin. Cells were maintained for 7 days with a fresh medium change every other day. […] Human GPR35 activation was examined using xCELLigence RTCA assay. To access the impact of GPR35 agonists on the lipid accumulation, WT and humanized GPR35 hepatocytes were incubated with T0901317 and/or GPR35 agonists/antagonists, as indicated (in DMEM medium containing 5% FBS and 1.5% BSA) for 48 h. Alternatively, GPR35 KO hepatocytes were incubated with drugs, as indicated for 5 days. In the T0901317 pretreatment model, human GPR35 hepatocytes were stimulated with T0901317 for 2 days and then further treated with lodoxamide for a further 3 days. After each drug treatment, hepatocytes were stained with Oil Red O and quantified as described. Each experiment was repeated at least three times.
Lipid accumulation was measured by Oil Red O staining. A working solution of Oil Red O was prepared, as described with modification.[46] After drug treatment, cells were washed with PBS and fixed with formalin solution for 1 h at 4 °C. Then, cells were stained with Oil Red O working solution for 10 min at room temperature. After PBS washing, Oil Red O was extracted from cells using 150 μl of isopropanol and OD510 nm measured. After the lipid extraction, cells were further soaked in PBS overnight at 4 °C. These cells were then stained with Hoechst 33342 (1 μg/mL) and the fluorescence intensity of Hoechst (represents the DNA content in cells) was measured using a CLARIOstar plate reader (BMG LABTECH). Oil Red O accumulation was corrected for differences in DNA content and expressed as relative absorbency, taking the control condition (treated with vehicle only) as 1.

HepG2 cells [5] = assay: Label-free cellular impedance assay (xCELLigence) in HepG2 cells; format: cell-based, human; conditions: HepG2 cells; for impedance response of antagonist added alone: 1 × 10^–5 M; for impedance response to lodoxamide on co-addition of antagonist: antagonist 1 × 10^–5 M, lodoxamide 1 × 10^–8 M
Protocol: as §1

HepG2 cells [6] = assay: Oil Red O staining of LXR (T0901317)-induced lipid accumulation in HepG2 cells; format: cell-based, human; conditions: T0901317/lodoxamide, concentration-dependent
Protocol: Human hepatocellular carcinoma HepG2 cells were grown in Minimum Essential Medium (MEM) supplemented with 10% fetal bovine serum (FBS), 2 mM L-glutamine, 1× non-essential amino acid, 1 mM sodium pyruvate, and 1× penicillin/streptomycin. Materials for cell culture were all from Sigma-Aldrich (St. Louis, MO) or Thermo Fisher Scientific (Waltham, MA). Cells were incubated in a humidified CO2 incubator at 37 °C. […] Cells were seeded onto a 12-well plate (1 × 10^5 cells/well) for 24 h prior to drug treatment. […] Lipid accumulation was measured by Oil Red O staining.

[7] = tested on: primary mouse hepatocytes; design: method as in Nam et al. 37; conditions: against 1 × 10^–6 M lodoxamide; ref Nam et al. 37; read-out: IC50 to block mouse GPR35 in primary hepatocytes; cited from earlier work

Structure (SMILES) | affinity at the mouse orthologue of GPR35 [1] | effect of co-addition of antagonist on the lodoxamide impedance signal in clone 27 cells transfected with human GPR35a [2] | effect of co-addition of antagonist on the lodoxamide impedance response ([3]; ML-145 1 × 10^–5 M, lodoxamide 1 × 10^–7 M) | impedance effect of antagonist alone versus DMSO-containing vehicle ([3]; hepatocytes from hGPR35a-HA-expressing mice) | Ki (human isoforms of GPR35) | effect of antagonist added alone on lipid content [4] | effect of antagonist on lodoxamide suppression of lipid accumulation ([4]; T0901317/lodoxamide 5 × 10^–6 M) | impedance response of antagonist added alone (HepG2 cells [5]) | impedance response to lodoxamide on co-addition of antagonist (HepG2 cells [5]) | antagonist co-addition: effect of lodoxamide on LXR-induced lipid accumulation (HepG2 cells [6]) | IC50 [7]
CC(/C=C1\SC(=S)N(CCCC(=O)Nc2ccc(C(=O)O)c(O)c2)C1=O)=C\c1ccccc1 [ML-145, 2-hydroxy-4-[4-(5Z)-5-[(E)-2-methyl-3-phenylprop-2-enylidene]-4-oxo-2-sulfanylidene-1,3-thiazolidin-3-yl]butanoylaminobenzoic acid] | neither of these ligands has measurable affinity | blocked | prevented | no separate effect | 0.0087 µM | without effect when added alone | blocked the effect of lodoxamide in a concentration-dependent manner | neither antagonist generated a response distinct from the vehicle | absent | prevented the effect of lodoxamide on lipid accumulation | –
COC(=O)c1cnn(-c2ccc(F)cc2F)c1C=NNC(=S)NC(C)(C)C [CID-2745687, 1-(2,4-difluorophenyl)-5-[[2-[[(1,1-dimethylehyl)amino]thioxomethyl]hydrazinylidene]methyl]-1H-pyrazole-4-carboxylic acid methyl ester] | neither of these ligands has measurable affinity | – | – | – | 0.042 µM | – | – | neither antagonist generated a response distinct from the vehicle | absent | prevented the effect of lodoxamide on lipid accumulation | 0.098 µM
